Measured values taken from US20250084069A1, “GERALEXIN AND USES THEREOF FOR THE TREATMENT OF RETINAL DEGENERATIVE DISEASES” (INSTITUT NATIONAL DE LA SANTÉ ET DE LA RECHERCHE MÉDICALE, priority 2022, published 2025).

What was measured:
glucose uptake by cones = assay: Uptake of NBDG (fluorescent deoxyglucose derivative) in cone-enriched cultured cells; format: cell-based, chicken
Method: FIG. 2: Geralexin protects cones by stimulating aerobic glycolysis. A. Analysis of the effect of cone cell morphology in cone-enriched cultures by Geralexin (UcaC3F8f3). Cells are labeled with calcein AM. […] C. […] G. Comparative analysis of the protection of Geralexin (Uc: G3) on cone-enriched cultures in 15 versus 30 mM glucose. H. Ratio Geralexin+/no Geralexin.
The therapeutic molecule, the acetogenin Geralexin (C37H66O7) (FIG. 1G) was purified to homogeneity from 100 kg of leaves of Uvaria chamae, a medicinal plant. […] We have fractionated Uvaria chamae extract by 7 steps of chromatography and characterized the molecule that we called Geralexin (FIG. 1E). […] Uc acts as RdCVF by stimulating aerobic glycolysis. […] The hydrophobicity of acetogenins allows their penetration into cones where Geralexin could bind and activate aerobic glycolysis (FIG. 2F-H). We search for genes encoding glycolytic enzymes with an expression profile indicating possible function in photoreceptors in our own web database KBaSS. […] PFKFB2 is a bifunctional protein with a N-terminal kinase domain that converts fructose 6 phosphate (F6P) into fructose 2,6 biphosphate (F26BP), an allosteric activator of phosphofructokinase (PFK), which catalyzes the rate-limiting step of glycolysis. […] We have analyzed the metabolome of the cone-enriched cultures exposed to Uc with the platform MetaToul (Toulouse). […]

[1] = tested on: cones of rd1 retinal explants; assay: Cone protection on cultured retinal explants of the rd1 mouse; format: cell-based
PFKFB2 mRNA = PFKFB2 mRNA expression by cones of cone-enriched culture, quantitative RT-PCR; format: cell-based, chicken
Text: (§1) G6P: glucose-6-phosphate, F6P; fructose-6-phosphate, F16BP: fructose-1,6-biphosphate, G3P: glycerol-3-phosphate, 2/3PG: 2- and 3-phosphoglycerate and PEP: phosphoenol pyruvate,
(§2) The therapeutic molecule, the acetogenin Geralexin (C37H66O7) (FIG. 1G) was purified to homogeneity from 100 kg of leaves of Uvaria chamae, a medicinal plant. […] We have fractionated Uvaria chamae extract by 7 steps of chromatography and characterized the molecule that we called Geralexin (FIG. 1E). […] Uc acts as RdCVF by stimulating aerobic glycolysis. […] The hydrophobicity of acetogenins allows their penetration into cones where Geralexin could bind and activate aerobic glycolysis (FIG. 2F-H). We search for genes encoding glycolytic enzymes with an expression profile indicating possible function in photoreceptors in our own web database KBaSS. […] PFKFB2 is a bifunctional protein with a N-terminal kinase domain that converts fructose 6 phosphate (F6P) into fructose 2,6 biphosphate (F26BP), an allosteric activator of phosphofructokinase (PFK), which catalyzes the rate-limiting step of glycolysis. […] We have analyzed the metabolome of the cone-enriched cultures exposed to Uc with the platform MetaToul (Toulouse). […] Our hypothesis is that Geralexin could be a treatment, alone or in addition to other interventions for dry AMD by preventing cone outer segment shortening and maintaining central vision.

[2] = tested on: phosphofructokinase (PFK); assay: Metabolomic analysis of cone-enriched cultures (MetaToul platform); format: cell-based, chicken; conditions: by metabolomic analysis
Text: as §1, §2

[3] = tested on: cones of cone-enriched cultures from chicken embryo; assay: Cone survival in cone-enriched cultures from chicken embryo (live/dead assay); format: cell-based
Text: FIG. 1: Identification of an extract from Uvaria chamae protecting cones by high content screening of 800 extracts from 200 medicinal plants using cone-enriched cultures from chicken embryo. A. The set represents a total of 12,800 tests. a: methanol polyamide, b: ethyl acetate, c: depleted ethyl acetate, d: depleted methanol. The figure gives an overview of the screening. […] C. Chromatogram of the fractionation by HPLC of Uvaria chamae the fraction Ucac3. The eight fractions (Ucac3F 1-8) are indicated by grey/white shading. D. Test of the protective activity on cones of the Ucac3 fractions 1-8. E. Purification scheme. F. Chromatographic profile of purified Geralexin. G. Structure of Geralexin (C37H66O7).
as §2

For `CCCCCCCCCC1OC1C1CCC(/C=C\C=C\CCC(O)C(O)CCC(O)CCCCCCCCCCC(=O)O)O1` (stereo not shown) [Geralexin], the “glucose (NBDG) uptake by cones” value (glucose uptake by cones) was “Increase of the uptake of NBDG”, the “protection of cones / cone survival” value [1] was “Protection of cones” and the “expression of PFKFB2 mRNA” value (PFKFB2 mRNA) was “Increase expression of PFKFB2 mRNA”. For the same compound, the “phosphofructokinase (PFK) activity” value [2] was “Increase phosphofructokinase (PFK) activity”, the “protective effect on cones after silencing BSG1” value ([3]; cone-enriched culture after electroporation of a micro RNA targeting BSG1) was “Absence of reduction of the protective effect” and the “cone survival / protection of cones” value ([3]; cone-enriched cultures from chicken embryo) was “stimulates aerobic glycolysis and cone survival”. For the same compound, the “effect of oxamate on the cone survival effect” value ([3]; cone-enriched cultures, with lactate dehydrogenase inhibitor oxamate) was “Reduction of the protection of cone”.
